In US6413937B1, “Combinations for use in increasing the potency of a substrate for multidrug resistance related protein” (Dublin City University and Enterprise Ireland, priority 1996, dated 2002):

Columns and labels:
[1] = system: DLKP-7 cells; test: adriamycin efflux from loaded cells, HPLC; type: cell-based
Protocol: DLKP-7 cells were seeded into 75 cm^2 flasks at 0.5×10^6 cells/10 ml ATCC medium. The cells were left for 2 days, the ATCC medium was removed and fresh medium containing adriamycin (0.5 μg/ml) was added. Following a 2 hour incubation this medium was removed, the flasks were washed twice with PBS, 10 ml ATCC medium or ATCC medium containing the test NSAID was added, and the cells were incubated for a further 4 hr. The cells were trypsinised and the pellet was frozen at −20° C. Duplicate flasks for each time point were prepared. The NSAIDs used were indomethacin 10 μg/ml and piroxicam 20 μg/ml.
The amount of adriamycin in the cells was quantified using liquid-liquid extraction and reverse-phase HPLC analysis. The frozen cell pellets were thawed and resuspended in […] of water/100 μl of 33% silver nitrate and mixed for 5 min. 300 μl of methanol, containing 1.5 μg of daunorubicin as an internal standard (IS), and 1.3 ml of acetonitrile were then added and the tubes mixed for a further 5 min. The mixture was transferred to glass tubes and kept at 4° C. for 1 hr. The tubes were then centrifuged at 1000 g for 15 min. to pellet any solid material. 1.1 ml of the supernatant was removed to HPLC autosampler vials (Labquip, Dublin, Ireland). The solvent was evaporated off at room temperature under a stream of nitrogen gas.
The extract was resuspended in 50 μl of mobile phase 1 (MP1): 32 ml of 0.1 M phosphoric acid mixed with 244 ml of ultrapure water, pH: 2.3 (adjusted upwards with a few drops of 1N potassium hydroxide) to which 124 ml of acetonitrile was added and the final mixture was degassed in a sonicating bath for 5 min. The second mobile phase (MP2) consisted of acetonitrile. The resuspended sample (20 μl) was automatically injected into the HPLC system. The HPLC system comprised a Beckman System Gold 507 autosampler, 125 pump and 166 detector. The MP was pumped through a C18 reversed-phase Prodigy 5 μm particle size ODS-3 column (Phenomenex, Macclesfield, England) (dimensions 150×4.6mm) and absorbance was measured at 253 nm. For the first 14 min. of the chromatographic run MP 1 was pumped at 0.5 ml/min. From 14 min. to 20 min. the column was switched to MP 2. At 20 min. the column was switched back to MP 1 and the flow rate increased to 1 ml/min. At 30 min. the flow rate was brought back to 0.5 ml/min. The run continued for a further 5 min. giving a total run time of 35 min. The amount of adriamycin present was quantified by measuring its peak area and the peak area of the IS. The peak area of the adriamycin was divided by the area of the IS peak and the ratio plotted against a concentration series for spiked adriamycin samples.

[2] = system: GSTs; conditions: cited from earlier work
[3] = system: HL-60S cells; test: etoposide-induced apoptosis (nuclear fragmentation), HL-60S; type: cell-based; conditions: HL-60S (sensitive); etoposide with sulindac; FIG. 2
Protocol: An experiment was carried out to determine the effect of the NSAID sulindac on etoposide-induced apoptosis in two cell lines, namely HL-60S and HL-60ADR. These cell lines were donated by Dr. Melvin Center, Kansas State University, Manhattan Kans. 66506, U.S.A. For the HL-60S and ADR cell lines the percentage of apoptotic cells within the cell population, following drug exposure, was used to quantify toxicity. Cells were plated in fresh medium at a concentration of 10^6 cells/ml in a 24-well plate (Greiner) and drugs were then added to the wells. A 200 μl sample from each well was taken after 4 and 8 hrs. Samples were cytospun for 2 min at 500 rpm using a Shandon Cytofuge3. After air-drying the cytospins were stained using a Romanowsky staining kit, Rappi-Diff II (Langanbach), dried and mounted in DPX (BDH). Slides were studied on an Optiphot microscope (Nikon) fitted with a 40× objective, and visualised on a monitor via a Mitsubishi CCD-100E colour CCD-camera and a 0.6× relay lens. Nuclear fragmentation was used as a morphological marker for apoptosis and a minimum of 200 cells were assessed in at least three different microscopic fields. Results were expressed as the percentage of apoptotic cells within the population. Each experiment was repeated in duplicate.

[4] = system: COR L23 P (non-MRP) cells; conditions: doxorubicin 10 mg/ml alone or with sulindac 20 mg/ml, 1, 2, 4 h, FIG. 4
Protocol: 10^6 COR L23 P (parental non-MRP resistant, MRP−) or COR L23 R (MRP resistant, MRP+) cells were added to 75 cm^3 vented flasks containing HEPES buffered Rosemount Park Memorial Institute (RPMI) medium and maintained at 37° C. in a 5% CO2 atmosphere. […] After three days of growth, doxorubicin (final concentration 10 mg/ml), sulindac (final concentration 20 mg/ml) or doxorubicin and sulindac were added to individual flasks. Samples were taken after 1, 2 and 4 h. and assayed for drug content.
The contents of each flask were washed twice with 5 ml of PBS and stored at −70° C. The flasks were thawed and 100 μl of water and 100 μl of 33% silver nitrate added to each and mixed for 5 min. […]
The extract was resuspended in 50 μl of methanol in the sample vial and loaded into the HPLC autosampler. […] The mobile phases were pumped through a C18 reversed-phase Ultrasphere XL (Beckman) HPLC column (4.6×70 mm) with absorbance measured at 253 nm. […] The amount of doxorubicin and sulindac present was quantified by measuring the peak height of these drugs and the internal standard. […] The concentration of doxorubicin in the samples was calculated from the) nd development standard line using the peak height ratio. The sulindac concentrations were calculated by the same method.

| Compound | % Adriamycin content at 0 h ([1]; cells loaded with adriamycin 0.5 μg/ml 2 h, indomethacin 10 μg/ml, piroxicam 20 μg/ml, 0 h) | % Adriamycin content at 4 h ([1]; cells loaded with adriamycin 0.5 μg/ml 2 h, indomethacin 10 μg/ml, piroxicam 20 μg/ml, 4 h) | level of adriamycin within the treated cells ([1]; during the 4 hours of the experiment) | inhibition of GSTs [2] | etoposide-induced apoptosis, percentage of apoptotic cells [3] | doxorubicin level in the cells [4] |
| --- | --- | --- | --- | --- | --- | --- |
| COc1ccc2c(c1)c(CC(=O)O)c(C)n2C(=O)c1ccc(Cl)cc1 [Indomethacin, indomethacin] | 100% | 109 ± 4% | remained constant during the 4 hours of the experiment | inhibitor of GSTs |  |  |
| CC1=C(CC(=O)O)c2cc(F)ccc2/C1=C\c1ccc([S+](C)[O-])cc1 (stereo not drawn) [Sulindac, sulindac] |  |  |  |  | the increased apoptosis is only due to an additive effect of both etoposide and sulindac | regardless of the co-treatment with sulindac |
